Consider one sequence from article PMC5347165, “Killing of Staphylococcus aureus and Salmonella enteritidis and neutralization of lipopolysaccharide by 17-residue bovine lactoferricins: improved activity of Trp/Ala-containing molecules” (Scientific Reports, 2017).

Assay [1] has as its system S. enteritidis CVCC3377. The class given is cell-based, Salmonella enteritidis. The following applies: microtiter broth dilution, 10^5 CFU/ml, 16‒18 h at 37 °C; representative of three independent experiments. The method, then: (§1) The MIC values of LfcinB17-33 derivatives against bacteria were determined by the microtiter broth dilution method. Briefly, 10 μl of serially diluted aliquots of peptides were added to each well of 96-well microtiter plates, followed by the addition of 90 μl exponential phase bacteria (10^5 CFU/ml) and incubated for 16‒18 h at 37 °C.

Assay [2] concerns S. aureus ATCC25923. Description: Cell surface hydrophobicity, hexadecane partitioning. The class given is cell-based, Staphylococcus aureus. The following applies: peptide 1×, 2× or 4× MIC, 10 min 37 °C, increased from 5.27% (untreated) to this value, mean, n = 3. The method, then:
(§2) The effects of AMPs on the cell surface hydrophobicity of S. aureus ATCC25923 and S. enteritidis CVCC3377 were measured using the hexadecane partitioning method. Cells were grown to stationary phase in Mueller-Hinton broth at 37 °C, harvested by centrifugation at 5000 rpm for 4 min, washed twice with sterile normal saline, and suspended in 0.1 M KNO3 (pH 6.2) to an OD600 nm of 0.4. […] Sterile normal saline was used as a negative control, and the optical density at 600 nm was measured as OD0. Subsequently, a 1.2-ml cell suspension was mixed with 0.2 ml of hexadecane by vortexing for 1 min, and then, the mixture was incubated for 15 min. The OD600 nm value of the aqueous phase was determined as OD1. The hydrophobicity percentages were calculated by the following equation: hydrophobicity (%) = (1 − OD1/OD0) × 100%. All experiments were repeated three times.

The test system of assay [3] is Staphylococcus aureus ATCC43300. Type of assay: cell-based. Conditions: microtiter broth dilution, 10^5 CFU/ml, 16‒18 h at 37 °C; representative of three independent experiments. The method, then: as §1
On the technique in general: In broth dilution the organism is exposed to a series of concentrations in liquid medium.

The test system of assay [4] is Bacillus subtilis ATCC6633. Type of assay: cell-based. Conditions: microtiter broth dilution, 10^5 CFU/ml, 16‒18 h at 37 °C; representative of three independent experiments. The method, then: as §1
The test system of assay [5] is S. pullorum CVCC1802. Type of assay: cell-based. The following applies: microtiter broth dilution, 10^5 CFU/ml, 16‒18 h at 37 °C; representative of three independent experiments. The method, then: as §1
The subject of assay [6] is S. pullorum CVCC1789. The class given is cell-based. Conditions: microtiter broth dilution, 10^5 CFU/ml, 16‒18 h at 37 °C; representative of three independent experiments. The method, then: as §1
The subject of assay [7] is Streptococcus suis CVCC606. Type of assay: cell-based. The following applies: microtiter broth dilution, 10^5 CFU/ml, 16‒18 h at 37 °C; representative of three independent experiments. The method, then:
as §1

The subject of assay [8] is Salmonella typhimurium ATCC14028. The class given is cell-based. Conditions: microtiter broth dilution, 10^5 CFU/ml, 16‒18 h at 37 °C; representative of three independent experiments. How it is done:
as §1

The subject of assay [9] is Enterococcus faecium CMCC1.2136. Type of assay: cell-based. The following applies: microtiter broth dilution, 10^5 CFU/ml, 16‒18 h at 37 °C; representative of three independent experiments. How it is done: as §1
The subject of assay [10] is Pseudomonas aeruginosa CICC10419. The class given is cell-based. Conditions: microtiter broth dilution, 10^5 CFU/ml, 16‒18 h at 37 °C; representative of three independent experiments. How it is done:
as §1

Assay [11] relates to Escherichia coli CVCC195. The class given is cell-based. The following applies: microtiter broth dilution, 10^5 CFU/ml, 16‒18 h at 37 °C; representative of three independent experiments. The method, then:
as §1

For assay [12], the system named is S. choleraesuis CVCC503. Type of assay: cell-based. The following applies: microtiter broth dilution, 10^5 CFU/ml, 16‒18 h at 37 °C; representative of three independent experiments. How it is done:
as §1

Assay [13] concerns genomic DNA from S. enteritidis CVCC3377. Description: Gel retardation (EMSA) of genomic DNA. The class given is binding, Salmonella enteritidis. The following applies: 0.7% agarose gel, 10 min 37 °C; ratios tested 0, 0.5, 1, 2.5, 5, 10 (w/w). How it is done:
(§3) Genomic DNA was extracted from S. aureus ATCC25923, E. coli O157 and S. enteritidis CVCC3377 using a TIANamp Bacteria DNA Kit (TIANGEN Biotech Co., Ltd., Beijing). The gel retardation experiment was performed by mixing the bacterial DNA with different concentrations of Lfcin4 or Lfcin5 in 20 μl binding buffer (10 mM Tris-HCl, pH 8.0, 5% glycerol, 1 mM dithiothreitol, 1 mM EDTA, 20 mM KCl, and 50 μg/ml bovine serum albumin)[41]. The ratios of peptide to DNA were 0, 0.5, 1, 2.5, 5.0, and 10.0 (w/w). The mixtures were incubated for 10 min at 37 °C and then subjected to electrophoresis on a 0.7% agarose gel.
(A gel shift assay detects complexes by their altered migration in electrophoresis.)

For assay [14], the system named is S. enteritidis CVCC3377. Description: Cell surface hydrophobicity, hexadecane partitioning. Type of assay: cell-based, Salmonella enteritidis. The following applies: peptide 1×, 2× or 4× MIC, 10 min 37 °C, increased from 9.43% (untreated) to this value, mean, n = 3. How it is done: as §2
The subject of assay [15] is S. enteritidis CVCC3377. As to the kind of experiment: Inner membrane permeabilization, PI staining by flow cytometry. The class given is cell-based, Salmonella enteritidis. The following applies: 1 × MIC, 37 °C, untreated 0.76%. How it is done: The permeabilization of the inner membrane was performed according to a previous report by Li et al. with slight modifications. […] Bacterial cells were then washed twice with PBS, fixed with 50 μg/ml PI and analyzed using a BD FACS Calibur Flow Cytometer (Franklin Lakes, New Jersey, USA). Data were analyzed using CellQuest Pro software (BD, USA).
On the technique in general: A flow cytometer gives signals particle by particle.

The nature of assay [16]: Calcein leakage from model membranes. Conditions: at 5 min, POPC/POPG (1:3) LUVs, 0.1% Triton X-100 = total. How it is done: Large unilamellar vesicles (LUVs) composed of POPC/POPG (1:3) were used as a model anionic membrane. […] were dissolved in chloroform, dried under nitrogen gas and vacuum-dried for 2 h. The lipid film was rehydrated in 20 mM HEPES (150 mM NaCl, 1 mM EDTA, pH 7.4). To make calcein-encapsulated unilamellar liposomes, the lipid film was suspended in 5 mM sodium HEPES (containing 100 mM calcein, pH 7.5). The liposome suspensions were freeze-thawed in liquid nitrogen five times and extruded ten times through two stacked polycarbonate filters (100 nm pore size) in an Avanti Mini-Extruder. Untrapped calcein was removed using a Sephadex G-50 column (Amersham Pharmacia Biotech, Little Chalfont, UK). Peptides were then added to the LUVs. After a 10-min incubation at room temperature, the release of calcein form vesicles was monitored for 10 min on a Tecan Infinite M200 PRO plate reader (TECAN, Austria) with an excitation wavelength of 485 nm and an emission wavelength of 535 nm. The total calcein fluorescence (FT) was determined by the addition of 0.1% Triton X-100. Dye leakage was calculated according to the following equation: leakage rate (%) = ((F − F0)/(FT − F0)), where F0 indicates the fluorescence of each sample at T = 0.

Assay [17] deals with E. coli CVCC1515. The class given is cell-based, Escherichia coli. The following applies: microtiter broth dilution, 10^5 CFU/ml, 16‒18 h at 37 °C; representative of three independent experiments. How it is done: as §1
Assay [18] deals with E. coli CICC21530 (serotype O157:H7). Type of assay: cell-based, Escherichia coli. Conditions: microtiter broth dilution, 10^5 CFU/ml, 16‒18 h at 37 °C; representative of three independent experiments. How it is done: as §1
Assay [19] has as its system S. aureus ATCC25923. Type of assay: cell-based, Staphylococcus aureus. Conditions: microtiter broth dilution, 10^5 CFU/ml, 16‒18 h at 37 °C; representative of three independent experiments. The method, then: as §1
The subject of assay [20] is genomic DNA from S. aureus ATCC25923. As to the kind of experiment: Gel retardation (EMSA) of genomic DNA. The class given is binding, Staphylococcus aureus. The following applies: 0.7% agarose gel, 10 min 37 °C; ratios tested 0, 0.5, 1, 2.5, 5, 10 (w/w). How it is done:
as §3

Where “and” joins values, the source holds several entries; their conditions need not be identical. Equal entries are not always repeated.

As for “FKAWRWAWRMKKLAAPS [Lfcin4, 17-residue LfcinB17-31 derivative, Trp/Ala-containing]”, the MIC (in general, the lowest concentration found to suppress growth) in assay [1] is 1.8 μM and 4 μg/ml; in assay [3] it was 29 μM and 64 μg/ml; in assay [4] it was 15 μM and 32 μg/ml; in [5] it was >58 μM and >128 μg/ml; in assay [6], >58 μM and >128 μg/ml; in assay [7] it was 58 μM and 128 μg/ml. Moreover, the MIC in assay [8] was 58 μM and 128 μg/ml; in assay [9], 7.3 μM and 16 μg/ml; in assay [10], >58 μM and >128 μg/ml; in assay [11], 30 μM and 64 μg/ml; in [12] it was 58 μM and 128 μg/ml; in [17], 15 μM and 32 μg/ml. Besides, the MIC in assay [18] was 15 μM and 32 μg/ml; in assay [19] it was 3.66 μM and 8 μg/ml. In addition, the cell surface hydrophobicity in assay [2] turned out to be 18.87%; in assay [14], 16.45%. Moreover, the “peptide:DNA mass ratio at which migration of genomic DNA is impaired” value in assay [13] is recorded as “greater than 2.5 mass ratio (peptide:DNA)”; in assay [20], “over 1.0 mass ratio (peptide:DNA)”. For the same sequence, the PI-positive cells in assay [15] (30 min) came out at 2.94%; in [15] (120 min), 18.90%. Also, the figures for the “dye (calcein) leakage from vesicles” value in assay [16] (1× MIC), in assay [16] (2× MIC) and in assay [16] (4× MIC) were 45.5%, 90.6% and 98.4%, respectively.
